pIC50: −log10 of the molar value.
How the values were obtained:
OVCAR-3 = assay: Cellular OVCAR-3 viability assay (CellTiter-Glo, 72 hours); type: cell-based; conditions: Homo sapiens
Excerpt: Human T-cell acute lymphoblastic leukemia cell line, MOLT-4 (ATCC, Cat #CRL-1582), Human multiple myeloma cell line, RPMI-8226 (Invitrogen, Cat #22400-089) and MM.1S (ATCC, Cat #CRL-2974), NSCLC (Non-small cell lung cancer) cell line H460 (ATCC, Cat #HTB-177), Human colon colorectal carcinoma cell line HCT116 (ATCC, Cat #CCL-247), Human acute monocytic leukemia cell line MV4-11 (ATCC, Cat #CRL-9591), OVCAR-3 (ATCC, Cat #HTB-161) and A2780 (ECACC, Cat #93112519) were obtained from ATCC. Cells were grown in RPMI-1640 media (Invitrogen, Cat #22400-089) supplemented with 10% FBS (Invitrogen, Cat #10099141) and 1% penicillin/streptomycin (Invitrogen, Cat #15070063) and cultured at 37° C., 5% CO2 in a humidified chamber. All cell lines were routinely tested for mycoplasma.
The effect of the CDK7 inhibitor to inhibit the growth of target cancer cells was evaluated through the 72 hours time period of viability assay. Briefly, the candidate cell line ware plated in 96 well plate at the following density of cells respectively. 1×10^4 cells/well for MOLT-4, RPMI-8226, MV4-11 and MM.1S, 5×10^3 for H460, HCT116 and OVCAR-3 and IX 10^3 for A2780. After 24 hours, the cells were treated with various concentrations of the compound (ranging from 0.0015 uM to 10 uM). DMSO solvent without compound served as a control and final DMSO concentration less than 0.1%. After 72 hours of incubation at 37° C., 5% CO2 incubator, cells were analyzed for the viability using the CellTiter-Glo Luminescent Cell Viability Assay (Promega, Cat #G7570). All viability assays were performed in duplicate and Luminescence was read using an Envision (Perkin Elmer, USA). Data was analyzed using XLfit software.

CDK7/Cyclin H/MNAT1 = biological target: T1, CDK7/Cyclin H/MNAT1 (Homo sapiens, UniProt P50613); assay: Enzymatic assay for CDK7 (FRET based LANCE Ultra kinase assay); type: biochemical; conditions: for pIC50: read-out: CDK7 enzymatic activity (IC50 range)
T1 construct: purchased Invitrogen PR6749B
Outline: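 Inhibition was measured at Km ATP by time-resolved FRET between a Eu anti-phospho antibody and a phosphorylated ULight peptide. The enzyme was the purified CDK7/cyclin complex, and data were curve-fitted.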

CDK2/Cyclin A = biological target: T2, CDK2/Cyclin A (Homo sapiens, UniProt P24941); assay: Enzymatic assay for CDK2 (FRET based LANCE Ultra kinase assay); type: biochemical; conditions: read-out: CDK2 enzymatic activity (IC50 range)
T2 construct: purchased Invitrogen PV6290
Outline: (§1)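 TR-FRET (LANCE Ultra) kinase assay at ATP Km, ULight-MBP peptide substrate (68 nM), 8-dose 4-fold compound series in DMSO. Enzymes: […]; 60 min at 23° C., stopped with EDTA plus Eu-anti-phospho-MBP antibody, read 665/615 nm after 60 min.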

CDK1/Cyclin B = biological target: T3, CDK1/Cyclin B (Homo sapiens, UniProt P06493); assay: Enzymatic assay for CDK1 (FRET based LANCE Ultra kinase assay); type: biochemical; conditions: read-out: CDK1 enzymatic activity (IC50 range)
T3 construct: purchased Invitrogen PR4768C
Outline: as §1

A2780 = assay: Cellular A2780 viability assay (CellTiter-Glo, 72 hours); type: cell-based; conditions: Homo sapiens
Outline: (§2)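 Compound exposure lasted 72 h at 37° C, 5% CO2, over 0.0015–10 uM, DMSO kept under 0.1%, with dosing 24 h after seeding. Seeding: A2780 1×10^3, OVCAR-3 5×10^3, MM.1S 1×10^4 cells/well in 10% FBS RPMI-1640. Duplicate CellTiter-Glo luminescence readout.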

CDK5/p25 = biological target: T4, CDK5/p25 (Homo sapiens, UniProt Q00535); assay: Enzymatic assay for CDK5 (FRET based LANCE Ultra kinase assay); type: biochemical; conditions: read-out: CDK5 enzymatic activity (IC50 range)
T4 construct: purchased Invitrogen PR8543B
Outline: as §1

MV4-11 = assay: Cellular MV4-11 viability assay (CellTiter-Glo, 72 hours); type: cell-based; conditions: Homo sapiens
Outline: (§3)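 Mycoplasma-tested cells, seeded at densities chosen for each line, received compound or DMSO vehicle (under 0.1% final) for 72 hours. Duplicate cultures were then read for viability by CellTiter-Glo luminescence.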

H460 = assay: Cellular H460 viability assay (CellTiter-Glo, 72 hours); type: cell-based; conditions: Homo sapiens, NCI-H460
Outline: as §3

MM.1S = assay: Cellular MM.1S viability assay (CellTiter-Glo, 72 hours); type: cell-based; conditions: Homo sapiens, MM1.S
Outline: as §2

RPMI-8226 = assay: Cellular RPMI-8226 viability assay (CellTiter-Glo, 72 hours); type: cell-based; conditions: Homo sapiens
Outline: as §3

HCT116 = assay: Cellular HCT116 viability assay (CellTiter-Glo, 72 hours); type: cell-based; conditions: Homo sapiens, HCT-116
Outline: as §3

MOLT-4 = assay: Cellular MOLT-4 viability assay (CellTiter-Glo, 72 hours); type: cell-based; conditions: Homo sapiens, MOLT4 viability assay
Outline: as §3

T3 sequence (P06493 whole entry): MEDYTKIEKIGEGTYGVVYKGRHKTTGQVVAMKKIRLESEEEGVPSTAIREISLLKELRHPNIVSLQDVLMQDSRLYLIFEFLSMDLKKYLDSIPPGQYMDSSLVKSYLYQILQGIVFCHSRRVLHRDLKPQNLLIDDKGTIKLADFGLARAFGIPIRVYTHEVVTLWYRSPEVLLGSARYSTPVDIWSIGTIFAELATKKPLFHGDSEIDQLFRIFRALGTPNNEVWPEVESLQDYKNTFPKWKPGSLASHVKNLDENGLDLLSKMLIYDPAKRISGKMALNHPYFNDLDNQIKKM
T3 sequence (P14635 whole entry partner): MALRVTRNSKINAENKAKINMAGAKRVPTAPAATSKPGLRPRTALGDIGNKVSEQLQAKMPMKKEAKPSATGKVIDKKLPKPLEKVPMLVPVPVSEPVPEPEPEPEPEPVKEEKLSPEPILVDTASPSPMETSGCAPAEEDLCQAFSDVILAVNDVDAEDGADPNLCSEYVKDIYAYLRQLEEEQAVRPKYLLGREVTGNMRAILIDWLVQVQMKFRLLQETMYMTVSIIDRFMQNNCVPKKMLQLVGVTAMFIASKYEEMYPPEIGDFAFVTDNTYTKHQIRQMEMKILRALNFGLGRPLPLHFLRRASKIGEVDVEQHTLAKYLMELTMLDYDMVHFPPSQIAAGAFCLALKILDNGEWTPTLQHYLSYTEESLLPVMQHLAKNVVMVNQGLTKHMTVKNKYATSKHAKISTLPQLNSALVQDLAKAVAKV
T1 sequence (P50613 whole entry): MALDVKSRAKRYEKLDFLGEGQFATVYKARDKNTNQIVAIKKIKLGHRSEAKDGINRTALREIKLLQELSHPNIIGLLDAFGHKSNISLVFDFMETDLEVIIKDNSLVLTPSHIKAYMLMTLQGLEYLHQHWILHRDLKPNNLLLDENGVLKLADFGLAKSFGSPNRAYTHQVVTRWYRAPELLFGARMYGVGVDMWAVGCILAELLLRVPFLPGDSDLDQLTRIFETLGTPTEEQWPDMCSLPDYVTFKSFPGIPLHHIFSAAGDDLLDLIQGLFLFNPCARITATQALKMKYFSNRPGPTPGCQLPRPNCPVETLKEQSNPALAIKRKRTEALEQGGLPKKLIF
T1 sequence (P51946 whole entry partner): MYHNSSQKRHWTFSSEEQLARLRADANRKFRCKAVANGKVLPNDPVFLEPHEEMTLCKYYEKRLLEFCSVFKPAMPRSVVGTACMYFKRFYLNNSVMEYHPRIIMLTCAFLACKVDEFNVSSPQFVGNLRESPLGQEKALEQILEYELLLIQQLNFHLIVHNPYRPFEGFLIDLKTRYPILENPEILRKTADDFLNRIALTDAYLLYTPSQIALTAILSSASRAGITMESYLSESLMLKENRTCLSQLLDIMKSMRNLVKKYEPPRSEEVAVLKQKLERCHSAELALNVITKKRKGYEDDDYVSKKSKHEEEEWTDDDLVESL
T1 sequence (P51948 whole entry partner): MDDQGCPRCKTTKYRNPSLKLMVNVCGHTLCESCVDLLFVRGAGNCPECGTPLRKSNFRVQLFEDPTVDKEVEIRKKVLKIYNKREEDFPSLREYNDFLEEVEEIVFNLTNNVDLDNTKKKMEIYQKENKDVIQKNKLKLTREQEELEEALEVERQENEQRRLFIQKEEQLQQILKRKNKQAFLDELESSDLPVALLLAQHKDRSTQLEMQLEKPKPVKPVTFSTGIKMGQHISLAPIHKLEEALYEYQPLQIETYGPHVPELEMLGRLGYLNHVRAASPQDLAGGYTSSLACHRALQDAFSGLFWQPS
T4 sequence (Q00535 whole entry): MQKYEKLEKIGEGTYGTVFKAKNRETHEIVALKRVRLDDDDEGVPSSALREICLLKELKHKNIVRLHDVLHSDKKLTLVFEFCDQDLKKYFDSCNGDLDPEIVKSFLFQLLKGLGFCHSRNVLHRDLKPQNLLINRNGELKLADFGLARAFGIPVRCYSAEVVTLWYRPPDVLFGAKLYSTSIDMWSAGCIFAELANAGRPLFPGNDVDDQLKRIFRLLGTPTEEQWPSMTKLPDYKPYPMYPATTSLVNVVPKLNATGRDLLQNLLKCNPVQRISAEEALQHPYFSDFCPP
T4 sequence (Q15078 99-307 partner limits assumed): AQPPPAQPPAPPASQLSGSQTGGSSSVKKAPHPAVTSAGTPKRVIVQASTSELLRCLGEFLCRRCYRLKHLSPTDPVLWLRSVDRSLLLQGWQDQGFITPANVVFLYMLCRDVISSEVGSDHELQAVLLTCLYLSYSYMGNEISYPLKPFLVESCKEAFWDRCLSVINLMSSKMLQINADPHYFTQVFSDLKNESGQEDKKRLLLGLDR

Compound	pIC50 (OVCAR-3)	CDK1/CDK7: Selectivity of CDK7 inhibition over CDK1 inhibition (CDK7/Cyclin H/MNAT1)	CDK2/CDK7: Selectivity of CDK7 inhibition over CDK2 inhibition (CDK7/Cyclin H/MNAT1)	CDK5/CDK7: Selectivity of CDK7 inhibition over CDK5 inhibition (CDK7/Cyclin H/MNAT1)	pIC50 (CDK7/Cyclin H/MNAT1)	pIC50 (CDK2/Cyclin A)	pIC50 (CDK1/Cyclin B)	pIC50 (A2780)	pIC50 (CDK5/p25)	pIC50 (MV4-11)	pIC50 (H460)	pIC50 (MM.1S)	pIC50 (RPMI-8226)	pIC50 (HCT116)	pIC50 (MOLT-4)
CC(C)c1cnn2c(NCc3ccccc3-n3cccn3)nc(-c3cccc(OC4CCNC4)c3)nc12 (racemic) [Compound 163]	5.00 to 6.00	A (A=greater than 200 fold)	B (B=less than 200 fold, but greater than 20 fold)	B (B=less than 200 fold, but greater than 20 fold)	> 7.00	6.00 to 7.00	< 6.00	≥ 6.00	6.00 to 7.00	> 6.00	> 6.00	≥ 6.00	–	–	–
CC(C)c1cnn2c(NCc3c(Cl)cccc3-c3cc4ccccc4[nH]3)nc(N3CCC(N)CC3)nc12 [Compound 182]	5.00 to 6.00	A (A=greater than 200 fold)	A (A=greater than 200 fold)	A (A=greater than 200 fold)	> 7.00	< 6.00	< 6.00	≥ 6.00	< 6.00	> 6.00	> 6.00	≥ 6.00	> 6.00	> 6.00	–
CC(C)c1cnn2c(NCc3c(Cl)cccc3-c3ccc4ccccc4n3)nc(N3CCC(N)CC3)nc12 [Compound 194]	5.00 to 6.00	A (A=greater than 200 fold)	A (A=greater than 200 fold)	A (A=greater than 200 fold)	> 7.00	< 6.00	< 6.00	≥ 6.00	< 6.00	> 6.00	> 6.00	≥ 6.00	–	> 6.00	–
CC(C)c1cnn2c(NCc3ccccc3-c3ccc4ccccc4n3)nc(N3CCC(N)CC3)nc12 [Compound 48]	5.00 to 6.00	A (A=greater than 200 fold)	A (A=greater than 200 fold)	B (B=less than 200 fold, but greater than 20 fold)	> 7.00	< 6.00	< 6.00	≥ 6.00	6.00 to 7.00	> 6.00	> 6.00	≥ 6.00	> 6.00	> 6.00	5.00 to 6.00
CC(C)c1cnn2c(NCc3ccccc3-c3ccc4ccccc4n3)nc(NC[C@H]3CCNC[C@@H]3O)nc12 [Compound 225]	≥ 6.00	A (A=greater than 200 fold)	A (A=greater than 200 fold)	A (A=greater than 200 fold)	> 7.00	6.00 to 7.00	< 6.00	≥ 6.00	6.00 to 7.00	> 6.00	> 6.00	–	–	> 6.00	–
CC(C)c1cnn2c(NCc3ccccc3-c3cc4cccc(NC(=O)C5CC5)c4[nH]3)nc(N3CCC(N)CC3)nc12 [Compound 144]	5.00 to 6.00	B (B=less than 200 fold, but greater than 20 fold)	B (B=less than 200 fold, but greater than 20 fold)	C (C=less than 20 fold)	> 7.00	6.00 to 7.00	6.00 to 7.00	≥ 6.00	> 7.00	> 6.00	> 6.00	–	> 6.00	> 6.00	–
CC(C)c1cnn2c(N[C@@H](C)c3ccccc3-n3cc4ccccc4n3)nc(N3CCC(N)CC3)nc12 [Compound 183]	5.00 to 6.00	A (A=greater than 200 fold)	A (A=greater than 200 fold)	A (A=greater than 200 fold)	> 7.00	< 6.00	< 6.00	≥ 6.00	< 6.00	> 6.00	> 6.00	≥ 6.00	–	> 6.00	–

From patent US11945822B2, “Pyrazolo-triazine and/or pyrazolo-pxrimidine derivatives as selective inhibitor of cyclin dependent kinase” (QURIENT CO., LTD., priority 2018, dated 2024)
